According to patent US12679822B2, “Alkenyl pyrimidine compound, preparation method therefor, and application thereof” (Hongyun Biotech Co., Ltd., priority 2020, dated 2026):

Assays:
Type in all cases: cell-based
[1] = biological target: BaF3 cell lines stably transfected with kinase EGFR Del/T790M (Homo sapiens, UniProt P00533, T790M, cells depend on it, form not given); assay: Growth inhibition of BaF3 cell line stably transfected with kinase EGFR Del/T790M (MTS); conditions: 48 h, read-out: growth inhibitory activity IC50, Del/T790M
BaF3 cell lines stably transfected with kinase EGFR Del/T790M, sequence (P00533 with tags, fused parts or gaps DEL746-750/T790M, form open): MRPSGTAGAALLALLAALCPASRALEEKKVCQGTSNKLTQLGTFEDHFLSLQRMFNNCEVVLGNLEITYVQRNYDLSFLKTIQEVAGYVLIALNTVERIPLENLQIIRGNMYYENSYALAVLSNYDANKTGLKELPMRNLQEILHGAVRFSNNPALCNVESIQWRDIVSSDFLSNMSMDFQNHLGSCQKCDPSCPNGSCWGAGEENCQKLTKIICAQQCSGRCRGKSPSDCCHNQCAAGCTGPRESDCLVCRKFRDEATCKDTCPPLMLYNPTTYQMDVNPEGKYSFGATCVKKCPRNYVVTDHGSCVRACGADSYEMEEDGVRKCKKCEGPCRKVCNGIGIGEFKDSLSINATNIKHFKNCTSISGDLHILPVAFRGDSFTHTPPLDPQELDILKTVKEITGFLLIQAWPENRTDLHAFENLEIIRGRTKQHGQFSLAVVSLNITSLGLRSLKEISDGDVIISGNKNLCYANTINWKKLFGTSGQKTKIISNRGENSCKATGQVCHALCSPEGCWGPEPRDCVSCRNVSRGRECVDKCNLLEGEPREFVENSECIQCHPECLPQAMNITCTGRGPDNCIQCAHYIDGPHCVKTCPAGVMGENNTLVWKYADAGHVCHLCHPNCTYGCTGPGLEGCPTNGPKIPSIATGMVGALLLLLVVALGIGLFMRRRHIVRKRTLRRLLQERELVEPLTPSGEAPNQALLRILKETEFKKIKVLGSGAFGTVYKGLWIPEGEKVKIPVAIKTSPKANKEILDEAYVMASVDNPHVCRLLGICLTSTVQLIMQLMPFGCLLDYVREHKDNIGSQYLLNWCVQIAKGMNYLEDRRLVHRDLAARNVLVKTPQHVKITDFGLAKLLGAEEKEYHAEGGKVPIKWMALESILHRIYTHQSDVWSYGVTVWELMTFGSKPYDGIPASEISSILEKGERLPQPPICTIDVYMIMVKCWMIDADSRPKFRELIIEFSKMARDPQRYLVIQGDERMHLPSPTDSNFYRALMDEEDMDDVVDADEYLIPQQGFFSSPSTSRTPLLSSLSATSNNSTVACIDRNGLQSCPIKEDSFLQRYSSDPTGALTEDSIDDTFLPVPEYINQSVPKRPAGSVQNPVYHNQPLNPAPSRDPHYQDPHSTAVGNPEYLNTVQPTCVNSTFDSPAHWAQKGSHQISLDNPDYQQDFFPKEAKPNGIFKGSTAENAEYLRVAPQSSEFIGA
Summary of the method: (§1)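 IC50 obtained from MTS-based inhibition after 48 h compound treatment (maximum 10 μM, 8 concentrations).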

[2] = biological target: BaF3 cell lines stably transfected with kinase EGFR Del (Homo sapiens, UniProt P00533, cells depend on it, form not given); assay: Growth inhibition of BaF3 cell line stably transfected with kinase EGFR Del (MTS); conditions: 48 h, read-out: growth inhibitory activity IC50, Del
Summary of the method: as §1

[3] = biological target: BaF3 cell lines stably transfected with kinase EGFR L858R (Homo sapiens, UniProt P00533, L858R, cells depend on it); assay: Growth inhibition of BaF3 cell line stably transfected with kinase EGFR L858R (MTS); conditions: 48 h, read-out: growth inhibitory activity IC50, L858R
BaF3 cell lines stably transfected with kinase EGFR L858R, sequence (P00533 whole entry L858R): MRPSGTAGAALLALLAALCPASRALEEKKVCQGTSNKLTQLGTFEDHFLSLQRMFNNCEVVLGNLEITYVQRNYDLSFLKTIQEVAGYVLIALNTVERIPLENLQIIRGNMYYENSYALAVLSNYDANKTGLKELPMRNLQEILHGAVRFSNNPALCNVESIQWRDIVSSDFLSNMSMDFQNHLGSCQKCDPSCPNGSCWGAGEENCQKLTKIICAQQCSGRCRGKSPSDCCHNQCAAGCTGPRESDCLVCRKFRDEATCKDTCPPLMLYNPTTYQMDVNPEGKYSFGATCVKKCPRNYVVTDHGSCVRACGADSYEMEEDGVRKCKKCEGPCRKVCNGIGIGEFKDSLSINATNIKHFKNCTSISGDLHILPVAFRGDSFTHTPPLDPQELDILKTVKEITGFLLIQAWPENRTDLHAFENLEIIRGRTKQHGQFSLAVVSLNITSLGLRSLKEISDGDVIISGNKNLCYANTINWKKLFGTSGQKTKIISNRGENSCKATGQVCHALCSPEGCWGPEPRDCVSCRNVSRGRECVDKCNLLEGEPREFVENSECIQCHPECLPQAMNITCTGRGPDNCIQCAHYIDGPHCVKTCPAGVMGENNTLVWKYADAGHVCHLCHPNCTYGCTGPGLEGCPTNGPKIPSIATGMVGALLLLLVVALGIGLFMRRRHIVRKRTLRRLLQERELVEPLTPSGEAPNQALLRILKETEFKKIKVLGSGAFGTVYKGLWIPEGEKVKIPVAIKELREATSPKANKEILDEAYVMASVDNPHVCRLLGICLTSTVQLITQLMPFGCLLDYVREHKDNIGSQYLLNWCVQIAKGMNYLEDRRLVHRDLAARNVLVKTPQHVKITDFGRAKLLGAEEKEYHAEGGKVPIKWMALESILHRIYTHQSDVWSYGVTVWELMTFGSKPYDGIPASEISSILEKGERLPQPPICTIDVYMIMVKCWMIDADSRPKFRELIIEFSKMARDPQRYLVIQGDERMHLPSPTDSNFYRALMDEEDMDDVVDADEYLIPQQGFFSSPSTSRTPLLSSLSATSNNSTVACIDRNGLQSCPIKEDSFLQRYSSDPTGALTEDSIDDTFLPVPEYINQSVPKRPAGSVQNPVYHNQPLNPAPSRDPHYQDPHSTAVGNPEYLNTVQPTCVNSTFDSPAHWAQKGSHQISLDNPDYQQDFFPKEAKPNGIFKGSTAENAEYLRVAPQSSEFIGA
Summary of the method: as §1

[4] = biological target: BaF3 cell lines stably transfected with kinase EGFR Del/T790M/C797S (Homo sapiens, UniProt P00533, T790M/C797S, cells depend on it, form not given); assay: Growth inhibition of BaF3 cell line stably transfected with kinase EGFR Del/T790M/C797S (MTS); conditions: 48 h, read-out: growth inhibitory activity IC50, Del/T790M/C797S
Summary of the method: as §1

[5] = biological target: BaF3 cell lines stably transfected with kinase EGFR L858R/T790M/C797S (Homo sapiens, UniProt P00533, T790M/C797S/L858R, cells depend on it); assay: Growth inhibition of BaF3 cell line stably transfected with kinase EGFR L858R/T790M/C797S (MTS); conditions: 48 h, read-out: growth inhibitory activity IC50, L858R/T790M/C797S
BaF3 cell lines stably transfected with kinase EGFR L858R/T790M/C797S, sequence (P00533 whole entry T790M/C797S/L858R): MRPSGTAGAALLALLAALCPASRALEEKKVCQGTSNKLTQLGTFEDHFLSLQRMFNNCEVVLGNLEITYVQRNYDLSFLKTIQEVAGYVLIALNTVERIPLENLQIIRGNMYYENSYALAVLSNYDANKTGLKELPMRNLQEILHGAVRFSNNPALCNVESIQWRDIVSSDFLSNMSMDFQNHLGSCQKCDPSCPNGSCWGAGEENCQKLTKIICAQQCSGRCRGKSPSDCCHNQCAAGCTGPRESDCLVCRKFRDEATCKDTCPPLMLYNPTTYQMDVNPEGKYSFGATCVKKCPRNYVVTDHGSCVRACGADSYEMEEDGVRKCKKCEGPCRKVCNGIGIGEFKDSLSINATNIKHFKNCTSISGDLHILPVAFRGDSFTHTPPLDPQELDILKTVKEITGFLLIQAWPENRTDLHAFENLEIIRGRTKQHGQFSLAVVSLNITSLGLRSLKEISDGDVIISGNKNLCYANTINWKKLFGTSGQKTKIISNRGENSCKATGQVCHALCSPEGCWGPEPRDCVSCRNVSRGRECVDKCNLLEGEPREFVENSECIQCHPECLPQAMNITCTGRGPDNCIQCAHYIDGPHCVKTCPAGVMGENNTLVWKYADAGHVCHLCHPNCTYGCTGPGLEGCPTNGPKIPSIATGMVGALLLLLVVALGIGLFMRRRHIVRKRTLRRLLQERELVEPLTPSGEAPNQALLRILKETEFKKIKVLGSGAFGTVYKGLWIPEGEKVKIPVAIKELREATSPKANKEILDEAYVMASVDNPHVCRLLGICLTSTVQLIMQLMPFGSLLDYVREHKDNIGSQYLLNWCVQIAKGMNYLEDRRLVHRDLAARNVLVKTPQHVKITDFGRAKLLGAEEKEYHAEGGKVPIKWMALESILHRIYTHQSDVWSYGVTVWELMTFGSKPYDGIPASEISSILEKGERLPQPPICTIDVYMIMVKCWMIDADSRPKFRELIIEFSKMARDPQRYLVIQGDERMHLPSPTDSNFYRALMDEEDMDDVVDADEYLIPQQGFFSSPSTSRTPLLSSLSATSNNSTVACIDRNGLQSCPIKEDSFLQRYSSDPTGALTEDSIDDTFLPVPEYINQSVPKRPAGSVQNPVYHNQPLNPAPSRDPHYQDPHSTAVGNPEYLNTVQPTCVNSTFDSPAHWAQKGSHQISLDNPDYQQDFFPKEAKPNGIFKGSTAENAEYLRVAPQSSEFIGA
Summary of the method: as §1

[6] = biological target: BaF3 cell lines stably transfected with kinase EGFR L858R/T790M (Homo sapiens, UniProt P00533, T790M/L858R, cells depend on it); assay: Growth inhibition of BaF3 cell line stably transfected with kinase EGFR L858R/T790M (MTS); conditions: 48 h, read-out: growth inhibitory activity IC50, L858R/T790M
BaF3 cell lines stably transfected with kinase EGFR L858R/T790M, sequence (P00533 whole entry T790M/L858R): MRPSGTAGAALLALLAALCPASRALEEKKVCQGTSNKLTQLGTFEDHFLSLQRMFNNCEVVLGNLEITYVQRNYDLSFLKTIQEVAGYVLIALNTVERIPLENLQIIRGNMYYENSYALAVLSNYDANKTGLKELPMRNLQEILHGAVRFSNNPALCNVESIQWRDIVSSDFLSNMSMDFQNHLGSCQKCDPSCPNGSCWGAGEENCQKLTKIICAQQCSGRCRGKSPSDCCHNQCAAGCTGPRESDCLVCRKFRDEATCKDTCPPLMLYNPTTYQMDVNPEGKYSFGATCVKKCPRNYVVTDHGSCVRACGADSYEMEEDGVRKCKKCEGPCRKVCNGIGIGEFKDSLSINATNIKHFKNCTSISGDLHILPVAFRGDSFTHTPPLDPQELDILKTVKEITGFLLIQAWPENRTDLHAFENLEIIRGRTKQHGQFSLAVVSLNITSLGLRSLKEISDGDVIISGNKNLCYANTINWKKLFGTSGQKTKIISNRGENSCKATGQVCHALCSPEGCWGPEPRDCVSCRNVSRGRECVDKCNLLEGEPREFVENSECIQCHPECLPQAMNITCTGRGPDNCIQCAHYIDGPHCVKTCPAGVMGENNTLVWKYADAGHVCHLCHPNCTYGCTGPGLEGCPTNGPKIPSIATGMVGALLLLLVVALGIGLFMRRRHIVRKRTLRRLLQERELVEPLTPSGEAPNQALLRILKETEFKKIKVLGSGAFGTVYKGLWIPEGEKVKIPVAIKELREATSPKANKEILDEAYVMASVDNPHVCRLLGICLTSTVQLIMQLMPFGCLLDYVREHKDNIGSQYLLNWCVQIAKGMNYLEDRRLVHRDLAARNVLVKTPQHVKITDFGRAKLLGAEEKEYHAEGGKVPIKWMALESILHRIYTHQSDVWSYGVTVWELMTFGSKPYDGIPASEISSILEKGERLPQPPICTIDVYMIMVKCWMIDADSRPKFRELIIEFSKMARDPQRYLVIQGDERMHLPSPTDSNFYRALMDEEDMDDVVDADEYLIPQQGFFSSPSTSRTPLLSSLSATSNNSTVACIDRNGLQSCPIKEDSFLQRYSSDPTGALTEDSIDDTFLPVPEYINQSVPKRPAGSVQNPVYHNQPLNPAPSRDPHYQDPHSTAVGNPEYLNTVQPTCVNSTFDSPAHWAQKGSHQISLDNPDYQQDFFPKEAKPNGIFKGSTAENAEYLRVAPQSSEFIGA
Summary of the method: as §1

Structure (SMILES) | GI50 [1] [nM] | GI50 [2] [nM] | GI50 [3] [nM] | GI50 [4] [nM] | GI50 [5] [nM] | GI50 [6] [nM]
C=Cc1cnc(Nc2cc(CC)n(C)n2)nc1Nc1ccc2nccnc2c1N(C)S(C)(=O)=O [II-63] | 50 to 500 | 50 to 500 | 500 to 2500 | 50 to 500 | 50 to 500 | 50 to 500
C=Cc1cnc(Nc2cnn(C)c2)nc1Nc1ccc2nccnc2c1N(C)S(C)(=O)=O [II-65] | 50 to 500 | 50 to 500 | 50 to 500 | 50 to 500 | 50 to 500 | 50 to 500
C=Cc1cnc(Nc2cnn(CC)c2)nc1Nc1ccc2nccnc2c1N(C)S(C)(=O)=O [II-66] | 500 to 2500 | 500 to 2500 | 500 to 2500 | 50 to 500 | 500 to 2500 | 500 to 2500
C=Cc1cnc(Nc2cn(CC)nc2C)nc1Nc1ccc2nccnc2c1N(C)S(C)(=O)=O [II-67] | 50 to 500 | 50 to 500 | 50 to 500 | 50 to 500 | 50 to 500 | 50 to 500
C=Cc1cnc(Nc2cn(CC)nc2C)nc1Nc1ccc2nccnc2c1N(C)S(C)(=O)=O [II-68] | 500 to 2500 | 50 to 500 | 50 to 500 | 50 to 500 | 50 to 500 | 500 to 2500
C=C(C)c1cnc(Nc2cc[nH]n2)nc1Nc1ccc2nccnc2c1N(C)S(C)(=O)=O [II-69] | 500 to 2500 | 50 to 500 | 50 to 500 | 500 to 2500 | 50 to 500 | 50 to 500
C=C(C)c1cnc(Nc2cn[nH]c2)nc1Nc1ccc2nccnc2c1N(C)S(C)(=O)=O [II-70] | 50 to 500 | 50 to 500 | 50 to 500 | ≤ 50 | 50 to 500 | ≤ 50
C=C(C)c1cnc(Nc2cnn(C)c2)nc1Nc1ccc2nccnc2c1N(C)S(C)(=O)=O [II-71] | ≤ 50 | 50 to 500 | 50 to 500 | ≤ 50 | 50 to 500 | ≤ 50
C=Cc1cnc(Nc2cc3c(cc2C)CCN(C)C3)nc1Nc1ccc2nccnc2c1N(C)S(C)(=O)=O [II-72] | 500 to 2500 | 50 to 500 | 50 to 500 | 50 to 500 | ≤ 50 | 50 to 500
C=Cc1cnc(Nc2cc3c(cc2OC)CCN(C)C3)nc1Nc1ccc2nccnc2c1N(C)S(C)(=O)=O [II-73] | 500 to 2500 | 500 to 2500 | 500 to 2500 | 500 to 2500 | 50 to 500 | 500 to 2500
C=Cc1cnc(Nc2cc3c(cc2F)CCN(C)C3)nc1Nc1ccc2nccnc2c1N(C)S(C)(=O)=O [II-74] | 50 to 500 | 50 to 500 | ≤ 50 | 50 to 500 | 50 to 500 | 50 to 500
C=Cc1cnc(Nc2cc3c(cc2OC(F)(F)F)CCN(C)C3)nc1Nc1ccc2nccnc2c1N(C)S(C)(=O)=O [II-76] | 500 to 2500 | 50 to 500 | 50 to 500 | 500 to 2500 | 50 to 500 | 50 to 500
C=Cc1cnc(Nc2ccc3c(c2)CN(C)CC3)nc1Nc1ccc2nccnc2c1N(C)S(C)(=O)=O [II-77] | ≤ 50 | ≤ 50 | ≤ 50 | 50 to 500 | ≤ 50 | ≤ 50
C=Cc1cnc(Nc2ccc3c(c2)C(C)CN(C)CC3)nc1Nc1ccc2nccnc2c1N(C)S(C)(=O)=O (stereo not drawn) [II-78] | 50 to 500 | ≤ 50 | ≤ 50 | 50 to 500 | ≤ 50 | ≤ 50
C=Cc1cnc(Nc2cc(CC)c(N3CCC(N4CCN(C)CC4)CC3)cc2OC)nc1Nc1ccc2nccnc2c1S(C)(=O)=O [III-1] | 50 to 500 | 50 to 500 | 500 to 2500 | 500 to 2500 | 500 to 2500 | 50 to 500
C=Cc1cnc(Nc2cc(CC)c(N3CCC(N(C)C)CC3)cc2OC)nc1Nc1ccc2nccnc2c1S(C)(=O)=O [III-2] | 50 to 500 | 500 to 2500 | 500 to 2500 | 500 to 2500 | 50 to 500 | 50 to 500
C=Cc1cnc(Nc2cc(CC)c(N3CCC(N(C)C)C3)cc2OC)nc1Nc1ccc2nccnc2c1S(C)(=O)=O (stereo not drawn) [III-3] | 500 to 2500 | 500 to 2500 | 500 to 2500 | 500 to 2500 | 500 to 2500 | 50 to 500

Structure (SMILES) | GI50 [1] [nM] | GI50 [2] [nM] | GI50 [3] [nM] | GI50 [4] [nM] | GI50 [5] [nM] | GI50 [6] [nM]
C=Cc1cnc(Nc2cc(CC)c(N3CCN(C)CC3)cc2OC)nc1Nc1ccc2nccnc2c1S(C)(=O)=O [III-4] | 500 to 2500 | 500 to 2500 | 500 to 2500 | 500 to 2500 | 500 to 2500 | 50 to 500
C=Cc1cnc(Nc2cc(CC)c(N3CCC(N4CCN(C)CC4)CC3)cc2OC(F)(F)F)nc1Nc1ccc2nccnc2c1S(C)(=O)=O [III-5] | 500 to 2500 | 500 to 2500 | 500 to 2500 | 500 to 2500 | 500 to 2500 | 50 to 500
C=Cc1cnc(Nc2cc(CC)c(N3CCC(N4CCN(C)CC4)CC3)cc2OC)nc1Nc1ccc2nccnc2c1S(=O)(=O)C(C)C [III-6] | 50 to 500 | 50 to 500 | 50 to 500 | 50 to 500 | 50 to 500 | 50 to 500
C=Cc1cnc(Nc2cc(C)c(N3CCC(N4CCN(C)CC4)CC3)cc2OC)nc1Nc1ccc2nccnc2c1S(C)(=O)=O [III-9] | 500 to 2500 | 500 to 2500 | 500 to 2500 | 500 to 2500 | 500 to 2500 | 50 to 500
C=Cc1cnc(Nc2cc(CC)c(N3CCC(N4CCN(C)CC4)CC3)nc2OC)nc1Nc1ccc2nccnc2c1S(C)(=O)=O [III-10] | 500 to 2500 | 500 to 2500 | 500 to 2500 | 500 to 2500 | 500 to 2500 | 50 to 500
C=Cc1cnc(Nc2cc(C(C)C)c(N3CCC(N4CCN(C)CC4)CC3)cc2OC)nc1Nc1ccc2nccnc2c1S(C)(=O)=O [III-11] | 500 to 2500 | 500 to 2500 | 500 to 2500 | 500 to 2500 | 500 to 2500 | 50 to 500
C=Cc1cnc(Nc2cc(C3CC3)c(N3CCC(N4CCN(C)CC4)CC3)cc2OC)nc1Nc1ccc2nccnc2c1S(C)(=O)=O [III-12] | 50 to 500 | 50 to 500 | 500 to 2500 | 500 to 2500 | 50 to 500 | 50 to 500
C=Cc1cnc(Nc2cc(CC3CC3)c(N3CCC(N4CCN(C)CC4)CC3)cc2OC)nc1Nc1ccc2nccnc2c1S(C)(=O)=O [III-13] | 50 to 500 | 50 to 500 | 500 to 2500 | 500 to 2500 | 500 to 2500 | 50 to 500
C=Cc1cnc(Nc2ccc(N3CCC(N4CCN(C)CC4)CC3)c(CC)c2)nc1Nc1ccc2nccnc2c1S(C)(=O)=O [III-14] | 50 to 500 | 50 to 500 | 50 to 500 | 500 to 2500 | 50 to 500 | 50 to 500
C=Cc1cnc(Nc2cc(F)c(N3CCC(N4CCN(C)CC4)CC3)c(F)c2)nc1Nc1ccc2nccnc2c1S(C)(=O)=O [III-16] | 50 to 500 | 500 to 2500 | 500 to 2500 | 500 to 2500 | 500 to 2500 | 500 to 2500
C=Cc1cnc(Nc2ccc(N3CCC(N4CCN(C)CC4)CC3)cc2OC)nc1Nc1ccc2nccnc2c1S(=O)(=O)C(C)C [III-18] | 500 to 2500 | 500 to 2500 | 50 to 500 | 500 to 2500 | 500 to 2500 | 50 to 500
C=Cc1cnc(Nc2cc(C)c(N3CCC(N4CCN(C)CC4)CC3)cc2OC)nc1Nc1ccc2nccnc2c1S(=O)(=O)C(C)C [III-19] | 50 to 500 | 50 to 500 | 50 to 500 | 500 to 2500 | 50 to 500 | 50 to 500
C=Cc1cnc(Nc2cc(C(C)C)c(N3CCC(N4CCN(C)CC4)CC3)cc2OC)nc1Nc1ccc2nccnc2c1S(=O)(=O)C(C)C [III-20] | 500 to 2500 | 500 to 2500 | 50 to 500 | 500 to 2500 | 500 to 2500 | 50 to 500
C=Cc1cnc(Nc2cc(C3CC3)c(N3CCC(N4CCN(C)CC4)CC3)cc2OC)nc1Nc1ccc2nccnc2c1S(=O)(=O)C(C)C [III-21] | 50 to 500 | 50 to 500 | 50 to 500 | 50 to 500 | 50 to 500 | 50 to 500
C=Cc1cnc(Nc2ccc(N3CCC(N4CCN(C)CC4)CC3)cc2OC)nc1Nc1ccc2nccnc2c1S(=O)(=O)NC [IV-1] | 500 to 2500 | 500 to 2500 | 500 to 2500 | 500 to 2500 | 500 to 2500 | 50 to 500
C=Cc1cnc(Nc2cc(C)c(N3CCC(N4CCN(C)CC4)CC3)cc2OC)nc1Nc1ccc2nccnc2c1S(=O)(=O)NC [IV-2] | 50 to 500 | 50 to 500 | 50 to 500 | 50 to 500 | 50 to 500 | 50 to 500
